# Experimental data reported in patent US20230312564A1, “AROMATIC RING-LACTAM COMPOUND, PREPARATION METHOD THEREFOR AND USE THEREOF” (SHANGHAI RINGENE BIOPHARMA CO., LTD., priority 2020, published 2023).
# pIC50: −log10 of the molar value. Where two headings read alike, the source gives them in different places.
# Key:
# ERK1/2 kinase = target: T1, ERK1/2 kinase; assay: ERK1/2 kinase (Carna) inhibitory activity, Caliper mobility shift; assay type: biochemical; conditions: for pIC50: read-out: ERK½ IC50
# T1 construct: fused on or other part: Carna's ERK products carry a GST tag by vendor knowledge
# Method: (1) Preparation of 1×Kinase buffer; (2) preparation of compound concentration gradient: the initial test concentration of the tested compound was 10 μM, which was 3-fold diluted to 10 concentrations, and a duplicate test was conducted, and then the tested compound was diluted in a 96 well plate to a 100-fold final concentration of 10 different concentrations of solution. […] Log (inhibitor) vs. response—Variable slope of the analysis software GraphPad Prism 5 was used to fit the dose-effect curve to obtain the IC50 value of each compound on the enzyme activity.
# 2. […] (A<10 nM, 10 nM≤B<200 nM, C≥200 nM)
# Colo-205 cells = assay: Colo-205 tumor cell proliferation, CCK-8, 72 hours; assay type: cell-based; conditions: for pIC50: 72 hours, CCK-8, read-out: Colo-205 IC50; for cell proliferation inhibitory activity (in words): Colo-205
# Method: 1. Test method: Colo-205 cells (ATCC) in logarithmic growth phase were inoculated into a 96-well culture plate at an appropriate density with 90 μL per well. After overnight culture, different concentrations of the compound were added and acted for 72 hours, and a solvent control group (negative control) was set. After the compound was acted on cells for 72 hours, the effect of the compound on cell proliferation was detected by the cell counting kit CCK-8 (Dojindo), and 10 μL of CCK-8 reagent was added to each well. After the plate was placed in a 37° C. incubator for 2 to 4 hours, a full-wavelength microplate reader SpectraMax 190 was adopted for obtaining the readings with a measured wavelength of 450 nm. […] The IC50 value was obtained by four-parameter regression with the software attached to the microplate reader.
# [1] = In-vivo pharmacokinetic parameters in mice; parameters: species or system Balb-c mice; conditions: for F: PO 5 mg/kg vs IV 1 mg/kg; for AUC(0-inf) / AUC(0-t) / MRT inf / clearance / half-life / Vd / Cmax / Tmax: male, Balb-c, mouse, plasma; for Vd: read-out: Vss
# Method: Six male SPF grade SD rats or Balb-c mice (Shanghai Sipple-Bikai Laboratory Animal) were divided into two groups, and the tested compounds were prepared into appropriate solutions or suspensions; one group was administered intravenously (with a dose of 1 mg/kg), and the other group was administered orally (with a dose of 5 mg/kg). Blood samples were collected by jugular vein puncture, and each sample was collected with a volume of about 0.2 mL/time point, and heparin sodium was used for anticoagulation. The time points of blood collection were listed below: 5, 15 and 30 min […], 1, 2, 4, 6, 8 and 24 h after administration; the collected blood samples were placed on ice and centrifuged to separate plasma (centrifugation conditions: 8,000 rpm, 6 min, 2 to 8° C.), and the collected plasma was stored at −80° C. before analysis. Plasma samples were analyzed by LC-MS/MS.
# The pharmacokinetic parameters such as AUC0-t, AUC0-∞, MRT0-∞, Cmax, Tmax, T1/2 and Vd of the tested compounds and their mean values and standard deviations were calculated by the pharmacokinetic calculation software WinNonlin5.2 non-compartmental model according to the plasma concentration data. In addition, the bioavailability (F) was calculated by the following formula.
# For samples with concentrations below the lower limit of quantitation, while pharmacokinetic parameter calculations were performed, samples sampled before Cmax was reached should be calculated as a zero value and samples sampled after Cmax was reached should be calculated as below limit of quantitation (BLQ).
# [2] = Homo sapiens, COLO 205, class symbols
# [3] = Homo sapiens, COLO 205, numeric values
compound,measurement,setting,value
Cc1cccc([C@@H](CO)NC(=O)[C@@H](C)N2Cc3ccc(-c4cc(NC5CCOCC5)ncn4)c(F)c3C2=O)c1 [Embodiment 6],pIC50,ERK1/2 kinase; class symbols,> 8.00
same,pIC50,Colo-205 cells; [2],> 7.00
Cc1cccc([C@@H](CO)NC(=O)[C@@H](C)N2Cc3ccc(-c4cc(NC5CCOCC5)ncn4)nc3C2=O)c1 [Embodiment 7],pIC50,ERK1/2 kinase; class symbols,6.70 to 8.00
same,pIC50,Colo-205 cells; [2],6.00 to 7.00
Cc1cccc([C@@H](CO)NC(=O)[C@@H](C)N2Cc3ccc(-c4ccnc(NC5CC(F)(F)C5)c4)c(F)c3C2=O)c1 [Embodiment 8],pIC50,ERK1/2 kinase; class symbols,> 8.00
same,cell proliferation inhibitory activity (in words),Colo-205 cells,strong cell proliferation inhibitory activity
same,pIC50,Colo-205 cells; [2],> 7.00
Cc1cccc([C@@H](CO)NC(=O)[C@@H](C)N2Cc3ccc(-c4nc(Nc5ccnn5C)ncc4Cl)nc3C2=O)c1 [Embodiment 9],pIC50,ERK1/2 kinase; class symbols,> 8.00
same,pIC50,Colo-205 cells; [2],6.00 to 7.00
Cc1cccc([C@@H](CO)NC(=O)[C@@H](C)N2Cc3ccc(-c4nc(NC5CC(F)(F)C5)ncc4Cl)nc3C2=O)c1 [Embodiment 10],pIC50,ERK1/2 kinase; numeric values,7.89
same,pIC50,Colo-205 cells; [2],6.00 to 7.00
Cc1cccc([C@@H](CO)NC(=O)[C@@H](C)N2Cc3ccc(-c4nc(N[C@H]5CCOC5)ncc4Cl)nc3C2=O)c1 [Embodiment 11],pIC50,ERK1/2 kinase; numeric values,8.08
same,pIC50,Colo-205 cells; [2],6.00 to 7.00
Cc1cccc([C@@H](CO)NC(=O)[C@@H](C)N2Cc3ccc(-c4nc(Nc5ccc(F)c(N6CCOCC6)c5)ncc4Cl)nc3C2=O)c1 [Embodiment 12],pIC50,ERK1/2 kinase; numeric values,7.92
same,pIC50,Colo-205 cells; [2],6.00 to 7.00
Cc1cccc([C@@H](CO)NC(=O)[C@@H](C)N2Cc3ccc(-c4cc(NC5CCOCC5)ncc4Cl)nc3C2=O)c1 [Embodiment 13],pIC50,ERK1/2 kinase; class symbols,6.70 to 8.00
same,pIC50,Colo-205 cells; [2],6.00 to 7.00
Cc1cccc([C@@H](CO)NC(=O)[C@@H](C)N2Cc3ccc(-c4cc(NC5CCOCC5)ncc4C)nc3C2=O)c1 [Embodiment 14],pIC50,ERK1/2 kinase; class symbols,6.70 to 8.00
same,pIC50,Colo-205 cells; [2],6.00 to 7.00
Cc1cccc([C@@H](CO)NC(=O)[C@@H](C)N2Cc3ccc(-c4cc(Nc5ccnn5C)ncc4F)nc3C2=O)c1 [Embodiment 15],pIC50,ERK1/2 kinase; class symbols,6.70 to 8.00
same,pIC50,Colo-205 cells; [2],6.00 to 7.00
Cc1cccc([C@@H](CO)NC(=O)[C@@H](C)N2Cc3ccc(-c4ccnc(Nc5ccnn5C)n4)nc3C2=O)c1 [Embodiment 16],pIC50,ERK1/2 kinase; class symbols,> 8.00
same,pIC50,Colo-205 cells; [2],> 7.00
Cc1cccc([C@@H](CO)NC(=O)[C@@H](C)N2Cc3ccc(-c4nc(NC5COC5)ncc4Cl)nc3C2=O)c1 [Embodiment 17],pIC50,ERK1/2 kinase; numeric values,8.28
same,pIC50,Colo-205 cells; [2],6.00 to 7.00
C[C@H](C(=O)N[C@H](CO)c1ccc(F)c(Cl)c1)N1Cc2ccc(-c3nc(NC4CCOCC4)ncc3Cl)nc2C1=O [Embodiment 19],pIC50,ERK1/2 kinase; numeric values,8.32
same,pIC50,Colo-205 cells; [3],6.70
C[C@H](C(=O)N[C@H](CO)c1cccc(F)c1)N1Cc2ccc(-c3nc(NC4CCOCC4)ncc3Cl)nc2C1=O [Embodiment 20],enzyme inhibitory activity (in words),ERK1/2 kinase,extremely strong enzyme inhibitory activity
same,pIC50,ERK1/2 kinase; numeric values,8.74
same,pIC50,Colo-205 cells; [3],6.61
Cc1cccc([C@@H](CO)NC(=O)[C@@H](C)N2Cc3ccc(-c4ccnc(NC5CCOCC5)c4)c(F)c3C2=O)c1 [Embodiment 22],enzyme inhibitory activity (in words),ERK1/2 kinase,extremely strong enzyme inhibitory activity
same,pIC50,ERK1/2 kinase; numeric values,8.89
same,cell proliferation inhibitory activity (in words),Colo-205 cells,strong cell proliferation inhibitory activity
same,pIC50,Colo-205 cells; [3],7.17
"Cc1cccc([C@@H](CO)NC(=O)[C@@H](C)N2Cc3ccc(-c4nc(NC5CCOCC5)ncc4Cl)c(F)c3C2=O)c1 [Embodiment 25, (R)-2-(6-(5-Chloro-2-((tetrahydro-2H-pyran-4-yl)amino)pyrimidin-4-yl)-7-fluoro-1-oxoisoindolin-2-yl)-N—((S)-2-hydroxy-1-(m-tolyl)ethyl)propanamide]",F,[1],43%
same,AUC(0-inf),"[1]; IV, 1 mg/kg",0.368 µM·h
same,AUC(0-t),"[1]; IV, 1 mg/kg",0.364 µM·h
same,MRT inf,"[1]; IV, 1 mg/kg",18 min
same,clearance,"[1]; IV, 1 mg/kg",80 mL/min/kg
same,half-life,"[1]; IV, 1 mg/kg",42 min
same,Vd,"[1]; IV, 1 mg/kg",1.6 L/kg
same,AUC(0-inf),"[1]; PO, 5 mg/kg",0.796 µM·h
same,AUC(0-t),"[1]; PO, 5 mg/kg",0.776 µM·h
same,Cmax,"[1]; PO, 5 mg/kg",955 nM
same,Tmax,"[1]; PO, 5 mg/kg",18 min
same,half-life,"[1]; PO, 5 mg/kg",102 min
Cc1cccc([C@@H](CO)NC(=O)[C@@H](C)N2Cc3ccc(-c4ccnc(Nc5ccnn5C)n4)c(F)c3C2=O)c1 [Embodiment 27],pIC50,ERK1/2 kinase; numeric values,8.89
same,pIC50,Colo-205 cells; class symbols,> 7.00
Cc1cccc([C@@H](CO)NC(=O)[C@@H](C)N2Cc3ccc(-c4nc(NC5CCOCC5)ncc4F)nc3C2=O)c1 [Embodiment 28],pIC50,ERK1/2 kinase; numeric values,8.43
same,pIC50,Colo-205 cells; class symbols,6.00 to 7.00
"Cc1cccc([C@@H](CO)NC(=O)[C@@H](C)N2Cc3ccc(-c4nc(Nc5ccnn5C)ncc4Cl)c(F)c3C2=O)c1 [Embodiment 32, (R)-2-(6-(5-Chloro-2-((1-methyl-1H-pyrazol-5-yl)amino)pyrimidin-4-yl)-7-fluoro-1-oxoisoindolin-2-yl)-N—((S)-2-hydroxy-1-(m-tolyl)ethyl)propanamide]",F,[1],26%
same,AUC(0-inf),"[1]; IV, 1 mg/kg",0.272 µM·h
same,AUC(0-t),"[1]; IV, 1 mg/kg",0.268 µM·h
same,MRT inf,"[1]; IV, 1 mg/kg",24 min
same,clearance,"[1]; IV, 1 mg/kg",110 mL/min/kg
same,half-life,"[1]; IV, 1 mg/kg",60 min
same,Vd,"[1]; IV, 1 mg/kg",2.7 L/kg
same,AUC(0-inf),"[1]; PO, 5 mg/kg",0.347 µM·h
same,AUC(0-t),"[1]; PO, 5 mg/kg",0.338 µM·h
same,Cmax,"[1]; PO, 5 mg/kg",357 nM
same,Tmax,"[1]; PO, 5 mg/kg",30 min
same,half-life,"[1]; PO, 5 mg/kg",90 min
"COc1cc(F)cc([C@@H](CO)NC(=O)[C@@H](C)N2Cc3ccc(-c4nc(NC5CCOCC5)ncc4Cl)c(F)c3C2=O)c1 [Embodiment 33, (R)-2-(6-(5-Chloro-2-((tetrahydro-2H-pyran-4-yl)amino)pyrimidin-4-yl)-7-fluoro-1-oxoisoindolin-2-yl)-N—((S)-1-(3-fluoro-5-methoxyphenyl)-2-hydroxyethyl)propanamide]",F,[1],25%
same,AUC(0-inf),"[1]; IV, 1 mg/kg",0.276 µM·h
same,AUC(0-t),"[1]; IV, 1 mg/kg",0.274 µM·h
same,MRT inf,"[1]; IV, 1 mg/kg",12 min
same,clearance,"[1]; IV, 1 mg/kg",102 mL/min/kg
same,half-life,"[1]; IV, 1 mg/kg",24 min
same,Vd,"[1]; IV, 1 mg/kg",1.3 L/kg
same,AUC(0-inf),"[1]; PO, 5 mg/kg",0.338 µM·h
same,AUC(0-t),"[1]; PO, 5 mg/kg",0.322 µM·h
same,Cmax,"[1]; PO, 5 mg/kg",441 nM
same,Tmax,"[1]; PO, 5 mg/kg",18 min
same,half-life,"[1]; PO, 5 mg/kg",90 min
"C[C@H](C(=O)N[C@H](CO)c1cccc(Cl)c1)N1Cc2ccc(-c3nc(NC4CCOCC4)ncc3Cl)c(F)c2C1=O [Embodiment 34, (R)-2-(6-(5-Chloro-2-((tetrahydro-2H-pyran-4-yl)amino)pyrimidin-4-yl)-7-fluoro-1-oxoisoindolin-2-yl)-N—((S)-1-(3-chlorophenyl)-2-hydroxyethyl)propanamide]",F,[1],19%
same,AUC(0-inf),"[1]; IV, 1 mg/kg",0.83 µM·h
same,AUC(0-t),"[1]; IV, 1 mg/kg",0.825 µM·h
same,MRT inf,"[1]; IV, 1 mg/kg",18 min
same,clearance,"[1]; IV, 1 mg/kg",34 mL/min/kg
same,half-life,"[1]; IV, 1 mg/kg",48 min
same,Vd,"[1]; IV, 1 mg/kg",0.7 L/kg
same,AUC(0-inf),"[1]; PO, 5 mg/kg",0.806 µM·h
same,AUC(0-t),"[1]; PO, 5 mg/kg",0.797 µM·h
same,Cmax,"[1]; PO, 5 mg/kg",791 nM
same,Tmax,"[1]; PO, 5 mg/kg",18 min
same,half-life,"[1]; PO, 5 mg/kg",90 min
"(R)-2-(3-(5-Chloro-2-((tetrahydro-2H-pyran-4-yl)amino)pyrimidin-4-yl)-5-oxo-5,7-dihydro-6H-pyrrolo[3,4-b]pyridin-6-yl)-N—((S)-2-hydroxy-1-(m-tolyl)ethyl)propanamide [Comparative compound 3, reference compound]",pIC50,Colo-205 cells; class symbols,< 6.00
